Results on 60 molecules are retold here after a melting point compilation (Tetko et al.; mined from patent text by program, amines drawn as free bases though some values may be those of a salt).

A value given as a limit tells only on which side of the number the result lay.

For orientation: melting point means the temperature, or range, at which the solid turns liquid. `OC(c1ccccc1)C1CCN(CCCN(c2ccccc2)c2ccccc2)CC1` (stereo not given) came in with a melting point of 129 to 130 °C. The molecule `CCCCc1oc2ccc(C#N)cc2c1C(=O)c1ccc(OCCCN(CCCC)CCCC)cc1` gave a melting point of 85 to 87 °C. `CC(=O)N1CCC(COCc2cc(C(F)(F)F)cc(C(F)(F)F)c2)(c2ccccc2)CC1` returned a melting point of 64 to 65 °C. For `N#CC(Cc1ccccc1)(Cc1ccccc1)C(=O)O`, the melting point came to 194 °C. In the case of `CC(CCC(=O)Cl)C1CCC2C3CCC4CCCCC4(C)C3CCC12C` (stereo not given) it was 104 to 106 °C; in that of `CC1Cc2cc3c(cc2C(c2ccc([N+](=O)[O-])cc2)=NN1c1ccc(Cl)nn1)OCO3` (stereo not given), 254 to 255 °C; in that of `CCCCNC(=O)N1CCC(c2nc(-c3ccc(-c4ccccc4)cc3)c[nH]2)CC1`, 99 to 100 °C. `C=CCN1CCc2cc(OC)c(O)cc2C1Cc1ccc(OC)c(OC)c1` (single isomer, unassigned; (+)) came in with a melting point of 108 to 112 °C. In turn, `CCc1nnc(-c2ccc(OC)cc2)c(-c2ccc(OC)cc2)n1` registered a melting point of 73 to 75.5 °C.

In turn, `COc1cc(C(=O)c2cnc3ccccc3c2)ccc1OCc1ccccc1` came in with a melting point of 110 to 111 °C. Take `CC(C)(c1ccccc1)C(Sc1ccc(Cl)cc1)n1ccnc1` (stereo not given): the melting point was 77 to 79 °C.

`CCOP(=O)(CCNCc1c(N)c(=O)c1=O)OCC` gave a melting point of 130 to 132 °C.

The molecule `Cn1ccnc1C=NO` returned a melting point of 170 to 172 °C. As to `CC(C)N(Cc1nc(-c2ncn3c2CN(C)C(=O)c2c-3ccc(F)c2Cl)no1)C(C)C`, the melting point was in the range of 153 to 156 °C. In the case of `O=C(O)c1ccc2c(=O)n3nc(C(=O)O)ccc3nc2c1` it was over 360 °C; in that of `O=C(CCCN1CCN(c2nc3nccc(-c4ccncc4)n3n2)CC1)c1ccc(F)cc1`, 133 to 135 °C. `O=c1[nH]cnc2ccc(S(=O)(=O)Cl)cc12` showed a melting point of over 400 °C. As for `CC(=O)OCCn1c(C)nc2ccccc2c1=O`, the melting point is 158 to 160 °C. Regarding `CCC(=O)Nc1ccc(-n2cc(CCCOc3c(CC(=O)O)cccc3OC)c(C(C)C)n2)nc1`, the melting point lay in the range of 147 to 148 °C. Consider `NC(=NO)c1ncn2c1COC(=O)c1c(Cl)cccc1-2`, for which the melting point was in the range of 252 to 254 °C. Molecule `Cc1ccc(S(=O)(=O)Cc2ccc(C(O)(C(F)(F)F)C(F)(F)F)cc2)cc1` returned a melting point of 129 °C. The value for `Nc1nc(Br)cn2c(Br)cnc12` was 246 °C. `O=C1c2ccccc2C(=O)N1CCOCCOCCOCCOCCOCCN1C(=O)c2ccccc2C1=O`: the melting point lay in the range of 124 to 126 °C.

In turn, `OC1(Cc2nc[nH]n2)CCCc2ccccc21` (stereo not given) showed a melting point of 105 to 108 °C. With `Fc1ccc2[nH]cc(C3=CCN(CC4COc5ccc6ncccc6c5O4)CC3)c2c1` (stereo not given), the melting point was 184 °C. Take `COCCOc1ccc(CCCNS(=O)(=O)c2cccc(Cl)c2)c(Oc2ncc(C(F)(F)F)cc2Cl)c1`: the melting point lay in the range of 110 to 114 °C.

For `O=C(O)c1cc(-c2ccccc2S(=O)(=O)Cl)c2ccc3c(-c4ccccc4S(=O)(=O)Cl)cc(C(=O)O)nc3c2n1`, the melting point was over 300 °C. `CC(=O)OCCCCCCOc1ccccc1C(=O)Nc1ccc(C(=O)N2CCCCc3ccccc32)cc1` yielded a melting point of 145 to 146 °C.

Take `CCC1(CC)NC(=O)Oc2ccccc21`: the melting point fell in the range of 160 to 162 °C. In turn, `CC(=O)c1ccc2ccccc2c1OCCCC(=O)O` displayed a melting point of 104 °C.

Regarding `CC(C)(C)C(=O)Nc1ccccc1CC1NCCc2ccccc21` (stereo not given), the melting point is 168 °C.

Consider `COc1cc2cc(-c3ccccc3)sc2c(Cl)c1Cl`, for which the melting point was in the range of 144 to 145 °C.

`Cc1cccc(Nc2cc(Cl)nc(SCC(N)=O)n2)c1C`: the melting point was 188 to 191 °C. `COC(=O)C1(Cl)CC(=O)N(c2ccc(Cl)cc2)C1=C(Cl)Cl` (stereo not given) yielded a melting point of 159 °C.

Turning to `CNC(=O)c1cc(F)ccc1CNC(=O)c1nc2n(c(=O)c1OCc1ccccc1)CCN2c1ccccc1`, the melting point lay in the range of 194 to 195 °C. Consider `COC(=O)CCCc1cc2nc(Cl)ccc2n1S(=O)(=O)c1cc(C)cc(C)c1`, for which the melting point is 138 °C. In turn, `CCOCc1nc2c(N)nc3ccccc3c2n1CCCON=C(C)C` returned a melting point of 109 to 111 °C. As for `COCc1cc(OC)c(-c2ccc(C[C@H](NC(=O)c3c(Cl)cccc3Cl)C(=O)O)cc2)c(OC)c1`, the melting point fell in the range of 232 to 235 °C.

Take `CCCCN(Cc1ccc(-c2ccccc2-c2nnnn2C(c2ccccc2)(c2ccccc2)c2ccccc2)cc1)c1nc(SC)ncc1C(=O)OCC`: the melting point lay in the range of 122 to 124 °C. The molecule `CC(C)(C)OC(=O)N1CCc2cc(OCc3ccccc3)c(OCc3ccccc3)cc2C1Cc1ccc(N)c(I)c1` (stereo not given) registered a melting point of 169 to 171 °C.

Molecule `CCCCCCCCCC(C)(C)c1cc(-c2cc3ccc(C(=O)O)cc3o2)ccc1OC` returned a melting point of 150 °C.

Take `CC(C)(C(=O)O)c1ccc(C(=O)Nc2cn3cc(-c4ccoc4)ccc3n2)cc1`: the melting point lay within 307 to 309 °C.

`O=c1nc(CN2CCC[C@H](OCc3cc(Cl)cc(Cl)c3)[C@@H]2c2ccccc2)[nH][nH]1` gave a melting point of over 220 °C.

In turn, `Cc1cc(C)cc(S(=O)(=O)n2c(CCC(=O)O)cc3cc(Cl)ccc32)c1` had a melting point of 189 to 193 °C. For `NC(=O)C1CCc2c(sc3cc(F)ccc23)C1` (stereo not given), the melting point fell in the range of 184 to 185 °C.

`CC(=O)c1ccc2c(c1)CCC1(CC2)CC1` returned a melting point of 56 to 58 °C. In the case of `Nc1cc(-c2c(-c3ccc(Cl)cc3)nc3cccnn23)ccn1` it was 252 to 253 °C; in that of `CN1C(=O)C2(COc3cc4c(cc32)OCCO4)c2c(C(=O)Oc3ccccc3)cccc21` (stereo not given), 184 to 186 °C; in that of `CCN1C(=O)N(c2c(F)c(OC)cc(OC)c2F)Cc2cnc(SC)nc21`, 165 to 168 °C. For the molecule `COc1ccc(C(=O)N2CCCC2=O)cc1OCc1ccccc1`, the melting point came to 92 °C. The molecule `CC1(C)COc2cc(Cl)c(F)cc2C(O)(c2ccccn2)C1` (stereo not given) returned a melting point of 100 °C. Turning to `IC=CC(CC1CCCC1)OC(c1ccccc1)(c1ccccc1)c1ccccc1` (stereo not given), the melting point is 87 to 88 °C. For the molecule `CCOP(=O)(CNc1ccc2cc([N+](=O)[O-])cc(-c3cccc4ccccc34)c2n1)OCC`, the melting point is 187 to 188 °C.

`COC1CCCC2=C(O)C3=C(C(=O)c4ccc(C(C)=O)cc4C3)C(O)C21` (stereo not given) had a melting point of 223 to 226 °C.

In turn, `CCn1c(Nc2cc(C(F)(F)F)ccc2C(F)(F)F)nc(C(F)(F)F)c(Cl)c1=O` had a melting point of 144 to 146 °C. Take `COC(=O)c1c[nH]c(-c2ccc(OC[C@@H](O)CNC(C)(C)C)cc2)n1`: the melting point is 168 to 172 °C. On to `CCCc1nnc(CCc2cc(OCc3ccc(OCc4nc(-c5ccccc5)oc4C)c(OC)c3)nn2-c2ccccc2)o1`, for which the melting point fell in the range of 85 to 86 °C.

With `O=C(N[C@H](CC1CCCCC1)CN1CCN(c2nccc3ccccc23)CC1)C1CCCCC1`, the melting point is 155 to 159 °C. With `O=C1COc2ccc(C3=CN=C(c4ccccc4)SC3c3ccccc3)cc2N1` (stereo not given), the melting point was 231 to 233 °C.

As for `O=C(O)C1CCOc2ccc(F)cc21` (stereo not given), the melting point fell in the range of 111 to 115 °C.
